1 compound from patent US20240197890A1, “FLAVONE DERIVATIVES AND USES IN TARGETING CK2-MEDIATED DISEASES AND CONDITIONS” (Salk Institute for Biological Studies, priority 2020, published 2024) can be followed below.

The subject of one assay is CK2 Y255. The assay can be described thus: Immunofluorescence of CK2 Y255 phosphorylation in nuclei of primary human astrocytes. As to conditions: 20 μM, 5 h. It counts as cell-based. The procedure:
Immunotluorescence. […] After treatment, cells were fixed with 4% paraformaldehyde solution for 20 min at room temperature and washed 3× with DPBS for 10 min each. The cells were permeabilized using 5% horse serum and 10% Triton X in DPBS for 15 min at room temperature and blocked with 5% horse serum in PBS for 30 min at room temperature. Cells were incubated with primary antibodies in blocking buffer either overnight at 4° C. or for 2 hours at room temperature. After incubation, cells were washed 3× with PBS, blocked using 5% horse serum in PBS for 30 min at room temperature, and incubated with Cy3 red-labeled or AF488 green-labeled secondary antibodies diluted in blocking buffer for 1 hour at room temperature. The cells were washed once with PBS for 10 min, then counter-stained with DAPI. The cells were washed 3× with PBS and mounted with glass coverslips and Immu-Mount solution. Images were obtained with the Zeiss fluorescent microscope. […]

For the next assay, the system named is IκB S32. The experiment in a line: Immunoblot of IκB S32 in IL1-β-stimulated astrocytes. It counts as cell-based, human. The note with it: after 5 hours. Here is the method: Western blotting. […] Cells were dissociated with 1:1 Accutase:papain for 3 min at rt, pelleted for 5 min at 800 g, and washed twice with cold DPBS. Pellets were lysed with RIPA buffer (Sigma R0278) supplemented with Halt protease inhibitor cocktail (Thermo Fisher 78445) and clarified by centrifugation (16,000 g, 10 min, 4° C.). Protein concentration was determined by BCA assay (Thermo Fisher). Proteins were denatured in 1×LDS Buffer and 2.5% beta-mercaptoethanol (X) for 10 min at 70° C., separated on Bolt 4-12% Bis-Tris Plus polyacrylamide gels (Thermo Fisher), transferred to PVDF membranes using the iBlot 2 Dry Blotting System, and blocked with 0.1% casein-PBS (Bio-Rad) for 1 h at room temperature. The blots were incubated with primary antibodies overnight at 4° C. in PBS containing 0.1% casein and 0.2% Tween-20. Antibodies used: rabbit anti-CK2a1 (Bethyl #, 1:5000), rabbit anti-CK2a2 (Bethyl #, 1:5000), mouse anti-GAPDH (Fitzgerald #10-1501, 1:20,000), mouse anti-NF-KB (CST #6956S, 1:1000), pNF-KB S529 (TFS #14-9864-82, 1:100), LC3B (CST 2775, 1:1000), ACO2 (CST 6922, 1:1000), rabbit HMGB1 (Novus #NB1002322, 1:1000), mouse anti-IκBα (CST #4814S, 1:1000), mouse anti-IκBa pS32 (SC #8404, 1:500), HA-tag (Bethyl #A190-108A, 1:20000). […] The blots were imaged using the Odyssey CLx imaging system and blots were analyzed on the ImageStudio software (LI-COR). […]
A general note: A western blot detects proteins with antibodies after separation by electrophoresis.

The subject of assay [1] is IL6 and IL8 expression in astrocytes. The assay can be described thus: Activation assay, ddPCR of cytokine expression in IL1-β-activated astrocytes. As to conditions: astrocytes and microglia; FIG. 1D, FIG. 2C. It counts as cell-based, human. The procedure: Activation assays and ddPCR. HCA or H1-derived astrocytes were treated with vehicle (DMSO) or 20 μM compound and stimulated with IL1-B 10 ng/mL for 5 h. Cells were scraped into RNA-Bee and total RNA was purified using the Direct-zol RNA kit (Zymo Research). RNA concentration was measured using Nanodrop and RNA was reverse transcribed into cDNA using the High Capacity cDNA Reverse Transcriptase Kit (Applied Biosystems). Reaction mixes consisting of TaqMan FAM probe (IL6, IL8, CSNK2A1, CSNK2A2), control TaqMan ACTB-VIC probe (TFS 4326315E), ddPCR Supermix for Probes (Bio-Rad 186-3024), and cDNA were formed into oil droplets using the QX200 Droplet Generator. After amplification (Bio-Rad C1000 Touch Thermal Cycler) according to manufacturer's instructions, the plate was read in the QX200 Droplet Reader.

For `COc1cc(-c2cc(=O)c3c(O)cc(O)cc3o2)ccc1O` [CHR, chrysoeriol], the pCK2/CK2 in nuclei result in the assay with CK2 Y255 was “reduced”. In addition, the “IκB S32 levels” value in the assay on IκB S32 is recorded as “decreased”. Besides, the “dose dependence of anti-inflammatory effects” value in assay [1] is on record as “dose-dependent”.
